According to patent US11225505B2, “Antimicrobial polymyxin derivative compounds” (MONASH UNIVERSITY, priority 2015, dated 2022):
In brackets after ≈: the same amount, converted by molar mass. Where a SMILES comes first, the peptide text is derived from it. Bridges are numbered along the chain shown (N, C = ends). [ ]: non-standard residue; d: D form. The star is where a group is joined. Nicotinoyl(6-CF3) = O=C(c1ccc(C(F)(F)F)nc1)*; Quinaldoyl = O=C(c1ccc2ccccc2n1)*; X47 = O=C(c1cc2cc(Cl)ccc2[nH]1)*; X24 = O=C(c1cccc(C(F)(F)F)n1)*; X34 = O=C(c1cc(Br)c(Br)o1)*; X5 = Cc1ccc2nc(C(=O)*)cn2c1; X50 = O=C(c1sc(Br)cc1Br)*; X25 = O=C(c1ccnc(Cl)c1)*; Dab = NCC[C@H](N)C(=O)O; Abu = CC[C@H](N)C(=O)O; Dap = NC[C@H](N)C(=O)O

Legend:
Format in all cases: cell-based
[1] = system: Pseudomonas aeruginosa FADDI-PA038; conditions: FADDI-PA038
How it was run: (§1)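 Lipopeptides (TFA salts) tested against Gram-negative strains by CLSI broth microdilution using cation-adjusted Mueller-Hinton broth; MIC recorded, polymyxin B sulphate as control.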

[2] = system: Klebsiella pneumoniae Kp BM1; conditions: Kp BM1
How it was run: (§2)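 The read-out is the MIC, obtained by CLSI broth microdilution (M100-S24) in cation-adjusted Mueller-Hinton broth. The compounds were lipopeptide TFA salts, and polymyxin B sulphate served as control.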

[3] = system: Klebsiella pneumoniae FADDI-KP032; conditions: FADDI-KP032
How it was run: as §1

[4] = system: Pseudomonas aeruginosa FADDI-PA022; conditions: FADDI-PA022
How it was run: as §1

[5] = system: Pseudomonas aeruginosa ATCC 27853; conditions: ATCC 27853
How it was run: as §1

[6] = system: Enterobacter cloacae FADDI-EC003; conditions: FADDI-EC003
How it was run: as §1

[7] = system: Klebsiella pneumoniae FADDI-KP022; conditions: FADDI-KP022
How it was run: as §1

[8] = system: Acinetobacter baumannii FADDI-AB034; conditions: FADDI-AB034
How it was run: as §1

[9] = system: Acinetobacter baumannii ATCC 17978; conditions: ATCC 17978
How it was run: as §1

[10] = system: Enterobacter cloacae FADDI-EC001; conditions: FADDI-EC001
How it was run: as §2

[11] = system: Enterobacter cloacae FADDI-EC006; conditions: FADDI-EC006
How it was run: as §1

[12] = system: Pseudomonas aeruginosa FADDI-PA01; conditions: FADDI-
How it was run: as §1

[13] = system: Acinetobacter baumannii FADDI-AB030; assay: microbe, parasite or virus in culture; conditions: FADDI-AB030
How it was run: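 Lipopeptide TFA salts tested against the multidrug-resistant clinical isolate by CLSI (M100-S24) broth microdilution in cation-adjusted Mueller-Hinton broth, with polymyxin B sulphate as control; MIC read.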

Structure (SMILES)	Minimum inhibitory concentration [1] [µg/mL]	Minimum inhibitory concentration [2] [µg/mL]	Minimum inhibitory concentration [3] [µg/mL]	Minimum inhibitory concentration [4] [µg/mL]	Minimum inhibitory concentration [5] [µg/mL]	Minimum inhibitory concentration [6] [µg/mL]	Minimum inhibitory concentration [7] [µg/mL]	Minimum inhibitory concentration [8] [µg/mL]	Minimum inhibitory concentration [9] [µg/mL]	Minimum inhibitory concentration [10] [µg/mL]	Minimum inhibitory concentration [11] [µg/mL]	Minimum inhibitory concentration [12] [µg/mL]	Minimum inhibitory concentration [13] [µg/mL]
CC[C@@H]1NC(=O)[C@@H](CC(C)C)NC(=O)[C@H](CCN)NC(=O)[C@@H](NC(=O)[C@H](CN)NC(=O)[C@@H](NC(=O)[C@H](CCN)NC(=O)c2ccc(C(F)(F)F)nc2)[C@@H](C)O)CCNC(=O)[C@H]([C@@H](C)O)NC(=O)[C@H](CCN)NC(=O)[C@H](CCN)NC1=O [Compound 3] ({Nicotinoyl(6-CF3)}-[Dab]T[Dap][Dab][Dab][dL][Abu][Dab][Dab]T; lactam 4-C)	1 (≈ 0.862 µM)	1 (≈ 0.862 µM)	0.25 (≈ 0.215 µM)	1 (≈ 0.862 µM)	0.5 (≈ 0.431 µM)	0.25 (≈ 0.215 µM)	<0.125	1 (≈ 0.862 µM)	1 (≈ 0.862 µM)	0.5 (≈ 0.431 µM)	1 (≈ 0.862 µM)	0.5 (≈ 0.431 µM)	1 (≈ 0.862 µM)
CC(C)C[C@H]1NC(=O)[C@H](CCN)NC(=O)[C@@H](NC(=O)[C@H](CN)NC(=O)[C@@H](NC(=O)[C@H](CCN)NC(=O)c2sc(Br)cc2Br)[C@@H](C)O)CCNC(=O)[C@H]([C@@H](C)O)NC(=O)[C@H](CCN)NC(=O)[C@H](CCN)NC(=O)[C@H]([C@@H](C)O)NC1=O [Compound 100] (X50-[Dab]T[Dap][Dab][Dab][dL]T[Dab][Dab]T; lactam 4-C)	1 (≈ 0.787 µM)	0.5 (≈ 0.393 µM)	0.25 (≈ 0.197 µM)	<0.125	<0.125	<0.125	<0.125	0.5 (≈ 0.393 µM)	0.25 (≈ 0.197 µM)	<0.125	<0.125	<0.125	0.5 (≈ 0.393 µM)
CC[C@@H]1NC(=O)[C@@H](CC(C)C)NC(=O)[C@H](CCN)NC(=O)[C@@H](NC(=O)[C@H](CN)NC(=O)[C@@H](NC(=O)[C@H](CCN)NC(=O)c2cccc(C(F)(F)F)n2)[C@@H](C)O)CCNC(=O)[C@H]([C@@H](C)O)NC(=O)[C@H](CCN)NC(=O)[C@H](CCN)NC1=O [Compound 44] (X24-[Dab]T[Dap][Dab][Dab][dL][Abu][Dab][Dab]T; lactam 4-C)	0.5 (≈ 0.431 µM)	<0.125	<0.125	0.25 (≈ 0.215 µM)	<0.125	<0.125	<0.125	2 (≈ 1.72 µM)	2 (≈ 1.72 µM)	<0.125	0.5 (≈ 0.431 µM)	<0.125	1 (≈ 0.862 µM)
CC[C@@H]1NC(=O)[C@@H](CC(C)C)NC(=O)[C@H](CCN)NC(=O)[C@@H](NC(=O)[C@H](CN)NC(=O)[C@@H](NC(=O)[C@H](CCN)NC(=O)c2cc3cc(Cl)ccc3[nH]2)[C@@H](C)O)CCNC(=O)[C@H]([C@@H](C)O)NC(=O)[C@H](CCN)NC(=O)[C@H](CCN)NC1=O [Compound 59] (X47-[Dab]T[Dap][Dab][Dab][dL][Abu][Dab][Dab]T; lactam 4-C)	1 (≈ 0.859 µM)	0.5 (≈ 0.429 µM)	0.25 (≈ 0.215 µM)	0.5 (≈ 0.429 µM)	0.5 (≈ 0.429 µM)	0.25 (≈ 0.215 µM)	<0.125	<0.125	0.5 (≈ 0.429 µM)	0.25 (≈ 0.215 µM)	0.5 (≈ 0.429 µM)	0.25 (≈ 0.215 µM)	0.5 (≈ 0.429 µM)
CC[C@@H]1NC(=O)[C@@H](CC(C)C)NC(=O)[C@H](CCN)NC(=O)[C@@H](NC(=O)[C@H](CN)NC(=O)[C@@H](NC(=O)[C@H](CCN)NC(=O)c2ccnc(Cl)c2)[C@@H](C)O)CCNC(=O)[C@H]([C@@H](C)O)NC(=O)[C@H](CCN)NC(=O)[C@H](CCN)NC1=O [Compound 24] (X25-[Dab]T[Dap][Dab][Dab][dL][Abu][Dab][Dab]T; lactam 4-C)	1 (≈ 0.888 µM)	0.25 (≈ 0.222 µM)	0.5 (≈ 0.444 µM)	0.25 (≈ 0.222 µM)	0.25 (≈ 0.222 µM)	0.25 (≈ 0.222 µM)	<0.125	1 (≈ 0.888 µM)	2 (≈ 1.78 µM)	0.25 (≈ 0.222 µM)	4 (≈ 3.55 µM)	0.25 (≈ 0.222 µM)	1 (≈ 0.888 µM)
CC[C@@H]1NC(=O)[C@@H](CC(C)C)NC(=O)[C@H](CCN)NC(=O)[C@@H](NC(=O)[C@H](CN)NC(=O)[C@@H](NC(=O)[C@H](CCN)NC(=O)c2cc(Br)c(Br)o2)[C@@H](C)O)CCNC(=O)[C@H]([C@@H](C)O)NC(=O)[C@H](CCN)NC(=O)[C@H](CCN)NC1=O [Compound 79] (X34-[Dab]T[Dap][Dab][Dab][dL][Abu][Dab][Dab]T; lactam 4-C)	0.5 (≈ 0.404 µM)	0.25 (≈ 0.202 µM)	<0.125	0.25 (≈ 0.202 µM)	0.25 (≈ 0.202 µM)	<0.125	<0.125	0.5 (≈ 0.404 µM)	0.5 (≈ 0.404 µM)	<0.125	0.25 (≈ 0.202 µM)	1 (≈ 0.807 µM)	0.25 (≈ 0.202 µM)
CC[C@@H]1NC(=O)[C@@H](CC(C)C)NC(=O)[C@H](CCN)NC(=O)[C@@H](NC(=O)[C@H](CN)NC(=O)[C@@H](NC(=O)[C@H](CCN)NC(=O)c2ccc3ccccc3n2)[C@@H](C)O)CCNC(=O)[C@H]([C@@H](C)O)NC(=O)[C@H](CCN)NC(=O)[C@H](CCN)NC1=O [Compound 55] (Quinaldoyl-[Dab]T[Dap][Dab][Dab][dL][Abu][Dab][Dab]T; lactam 4-C)	0.25 (≈ 0.219 µM)	0.5 (≈ 0.438 µM)	<0.125	<0.125	0.25 (≈ 0.219 µM)	<0.125	<0.125	0.25 (≈ 0.219 µM)	1 (≈ 0.875 µM)	<0.125	<0.125	0.25 (≈ 0.219 µM)	0.25 (≈ 0.219 µM)
CC[C@@H]1NC(=O)[C@@H](CC(C)C)NC(=O)[C@H](CCN)NC(=O)[C@@H](NC(=O)[C@H](CN)NC(=O)[C@@H](NC(=O)[C@H](CCN)NC(=O)c2cn3cc(C)ccc3n2)[C@@H](C)O)CCNC(=O)[C@H]([C@@H](C)O)NC(=O)[C@H](CCN)NC(=O)[C@H](CCN)NC1=O [Compound 49] (X5-[Dab]T[Dap][Dab][Dab][dL][Abu][Dab][Dab]T; lactam 4-C)	0.5 (≈ 0.437 µM)	0.25 (≈ 0.218 µM)	<0.125	0.5 (≈ 0.437 µM)	0.25 (≈ 0.218 µM)	<0.125	<0.125	4 (≈ 3.49 µM)	2 (≈ 1.75 µM)	<0.125	1 (≈ 0.873 µM)	0.25 (≈ 0.218 µM)	1 (≈ 0.873 µM)
CC(C)C[C@H]1NC(=O)[C@H](CCN)NC(=O)[C@@H](NC(=O)[C@H](CN)NC(=O)[C@@H](NC(=O)[C@H](CCN)NC(=O)c2sc(Br)cc2Br)[C@@H](C)O)CCNC(=O)[C@H]([C@@H](C)O)NC(=O)[C@H](CCN)NC(=O)[C@H](CCN)NC(=O)[C@H](C)NC1=O [Compound 99] (X50-[Dab]T[Dap][Dab][Dab][dL]A[Dab][Dab]T; lactam 4-C)	1 (≈ 0.806 µM)	0.25 (≈ 0.201 µM)	<0.125	0.25 (≈ 0.201 µM)	0.25 (≈ 0.201 µM)	0.25 (≈ 0.201 µM)	<0.125	0.5 (≈ 0.403 µM)	1 (≈ 0.806 µM)	<0.125	<0.125	0.25 (≈ 0.201 µM)	0.5 (≈ 0.403 µM)
